Results from PubChem BioAssay AID256 (DTP/NCI, 2004).
Values joined by “and” are separate entries in the source; they are usually repeats but may differ in a detail not shown here. Equal entries are not always repeated. Toxic doses and inconclusive results are not listed. Rule for the calls: active = survival T/C of 150% or more; inactive = T/C below 125% in these data.

System: CD2F1 mice, L1210 leukemia ip, survival T/C
Assay: NCI In Vivo Anticancer Drug Screen. Data for tumor model L1210 Leukemia (intraperitoneal) in CD2F1 (CDF1) mice
Details: higher = longer survival
Experimental: The antitumor activity of compounds was measured in mice bearing transplantable tumors. Survival or tumor size were measured and the results are expressed as the measurement made in the treated group (T) divided by the measurement made in the vehicle treated control group (C). The tumor model used in this assay is L1210 Leukemia (intraperitoneal) in CD2F1 (CDF1) mice

[1] = endpoint: mean survival time, dose: 100.0 mg/kg/injection, schedule: Q01DX001 (ip), vehicle: saline with Tween-80
[2] = endpoint: mean survival time, dose: 25.0 mg/kg/injection, schedule: Q01DX009 (ip), vehicle: saline with Tween-80
[3] = endpoint: mean survival time, dose: 100.0 mg/kg/injection, schedule: Q01DX009 (ip), vehicle: saline with Tween-80
[4] = endpoint: mean survival time, dose: 100.0 mg/kg/injection, schedule: Q04DX003 (ip), vehicle: saline with Tween-80
[5] = endpoint: mean survival time, dose: 200.0 mg/kg/injection, schedule: Q04DX003 (ip), vehicle: saline with Tween-80
[6] = endpoint: mean survival time, dose: 400.0 mg/kg/injection, schedule: Q04DX003 (ip), vehicle: saline with Tween-80
[7] = endpoint: mean survival time, dose: 100.0 mg/kg/injection, schedule: Q01DX009 (ip), vehicle: saline
[8] = endpoint: mean survival time, dose: 200.0 mg/kg/injection, schedule: Q01DX009 (ip), vehicle: saline

Measured: T/C

Cc1cc(C(O)(C(=O)O)c2ccccc2)cc(C)c1C (stereo not drawn)
inactive: endpoint: mean survival time, dose: 75.0 mg/kg/injection, schedule: Q01DX001 (ip), vehicle: other 100 % of control | endpoint: mean survival time, dose: 150.0 mg/kg/injection, schedule: Q01DX001 (ip), vehicle: other 90 % of control | endpoint: mean survival time, dose: 300.0 mg/kg/injection, schedule: Q01DX001 (ip), vehicle: other 105 % of control

CC(=O)c1ccc2c3ccccc3n(C)c2c1
inactive: endpoint: mean survival time, dose: 50.0 mg/kg/injection, schedule: Q01DX009 (ip), vehicle: Klucel (hydroxypropylcellulose) (HPC) 93 % of control | endpoint: mean survival time, dose: 100.0 mg/kg/injection, schedule: Q01DX009 (ip), vehicle: Klucel (hydroxypropylcellulose) (HPC) 93 % of control | endpoint: mean survival time, dose: 200.0 mg/kg/injection, schedule: Q01DX009 (ip), vehicle: Klucel (hydroxypropylcellulose) (HPC) 93 % of control

Nc1c(Cl)cc2c(c1Cl)Cc1c-2cc(Br)c(N)c1Br
inactive: endpoint: mean survival time, dose: 12.5 mg/kg/injection, schedule: Q01DX001 (ip), vehicle: saline with Tween-80 100 % of control | endpoint: mean survival time, dose: 25.0 mg/kg/injection, schedule: Q01DX001 (ip), vehicle: saline with Tween-80 97 % of control | endpoint: mean survival time, dose: 50.0 mg/kg/injection, schedule: Q01DX001 (ip), vehicle: saline with Tween-80 97 % of control | [1] 101 % of control

O=C(C=C(C(F)(F)F)C(F)(F)F)c1ccccc1Cl
inactive: endpoint: mean survival time, dose: 12.5 mg/kg/injection, schedule: Q01DX009 (ip), vehicle: saline with Tween-80 103 % of control | [2] 102 % of control

O=S(=O)(O)c1ccc(N=Nc2cc(O)cc3ccccc23)cc1
inactive: endpoint: mean survival time, dose: 6.25 mg/kg/injection, schedule: Q01DX001 (ip), vehicle: saline 96 % of control | endpoint: mean survival time, dose: 12.5 mg/kg/injection, schedule: Q01DX001 (ip), vehicle: saline 92 % of control | endpoint: mean survival time, dose: 25.0 mg/kg/injection, schedule: Q01DX001 (ip), vehicle: saline 88 % of control | endpoint: mean survival time, dose: 100.0 mg/kg/injection, schedule: Q01DX001 (ip), vehicle: saline 86 % of control | endpoint: mean survival time, dose: 200.0 mg/kg/injection, schedule: Q01DX001 (ip), vehicle: saline 88 % of control | endpoint: mean survival time, dose: 400.0 mg/kg/injection, schedule: Q01DX001 (ip), vehicle: saline 96 % of control

c1ccc2c(c1)[nH]c1ccncc12
inactive: [2] 98 % of control | endpoint: mean survival time, dose: 50.0 mg/kg/injection, schedule: Q01DX009 (ip), vehicle: saline with Tween-80 90 % of control | [3] 87 % of control

COc1ccc(Nc2nc(N)nc3c2ncn3C2OC(CO)C(O)C2O)cc1 (stereo not drawn)
inactive: endpoint: mean survival time, dose: 12.5 mg/kg/injection, schedule: Q01DX005 (ip), vehicle: distilled water + Tween-80 96 % of control | endpoint: mean survival time, dose: 25.0 mg/kg/injection, schedule: Q01DX005 (ip), vehicle: distilled water + Tween-80 98 % of control | endpoint: mean survival time, dose: 50.0 mg/kg/injection, schedule: Q01DX005 (ip), vehicle: distilled water + Tween-80 104 % of control | endpoint: mean survival time, dose: 100.0 mg/kg/injection, schedule: Q01DX005 (ip), vehicle: distilled water + Tween-80 111 % of control

O=c1cc(Nc2cccc(Cl)c2Cl)[nH]c(=O)[nH]1
inactive: [1] 93 % of control and 97 % of control | endpoint: mean survival time, dose: 100.0 mg/kg/injection, schedule: Q04DX002 (ip), vehicle: saline with Tween-80 118 % of control and 91 % of control | endpoint: mean survival time, dose: 200.0 mg/kg/injection, schedule: Q01DX001 (ip), vehicle: saline with Tween-80 97 % of control and 98 % of control | endpoint: mean survival time, dose: 200.0 mg/kg/injection, schedule: Q04DX002 (ip), vehicle: saline with Tween-80 90 % of control and 92 % of control | endpoint: mean survival time, dose: 400.0 mg/kg/injection, schedule: Q01DX001 (ip), vehicle: saline with Tween-80 95 % of control and 97 % of control | endpoint: mean survival time, dose: 400.0 mg/kg/injection, schedule: Q04DX002 (ip), vehicle: saline with Tween-80 91 % of control and 100 % of control

O=Cc1c[nH]c2ncccc12
inactive: [4] 98 % of control | [5] 94 % of control | [6] 98 % of control

CN(C)c1ccc(N=Nc2nccs2)cc1
inactive: endpoint: mean survival time, dose: 18.7 mg/kg/injection, schedule: Q04DX003 (ip), vehicle: saline with Tween-80 86 % of control | endpoint: mean survival time, dose: 37.5 mg/kg/injection, schedule: Q04DX003 (ip), vehicle: saline with Tween-80 102 % of control | endpoint: mean survival time, dose: 75.0 mg/kg/injection, schedule: Q04DX003 (ip), vehicle: saline with Tween-80 96 % of control

COc1ccc2c(c1)n([O-])c1ccccc1[n+]2=O
active: endpoint: median survival time, dose: 100.0 mg/kg/injection, schedule: Q01DX005 (ip), vehicle: saline with Tween-80 300 % of control
222 % of control and 112 % of control: endpoint: median survival time, dose: 36.0 mg/kg/injection, schedule: Q01DX005 (ip), vehicle: saline with Tween-80
inactive: endpoint: median survival time, dose: 12.5 mg/kg/injection, schedule: Q01DX005 (ip), vehicle: saline with Tween-80 116 % of control | endpoint: median survival time, dose: 12.56 mg/kg/injection, schedule: Q01DX005 (ip), vehicle: saline with Tween-80 115 % of control | endpoint: median survival time, dose: 21.6 mg/kg/injection, schedule: Q01DX005 (ip), vehicle: saline with Tween-80 115 % of control | endpoint: median survival time, dose: 25.0 mg/kg/injection, schedule: Q01DX005 (ip), vehicle: saline with Tween-80 116 % of control | endpoint: median survival time, dose: 50.0 mg/kg/injection, schedule: Q01DX005 (ip), vehicle: saline with Tween-80 117 % of control | endpoint: median survival time, dose: 166.67 mg/kg/injection, schedule: Q01DX005 (ip), vehicle: saline with Tween-80 123 % of control
120 % of control and 287 % of control: endpoint: median survival time, dose: 60.0 mg/kg/injection, schedule: Q01DX005 (ip), vehicle: saline with Tween-80

CC(C)(C)[N+](=O)[O-]
inactive: endpoint: mean survival time, dose: 50.0 mg/kg/injection, schedule: Q01DX009 (ip), vehicle: saline 93 % of control | [7] 93 % of control | [8] 93 % of control

Cc1ccc(S(=O)(=O)NC(=O)c2ccccc2)cc1
inactive: [3] 95 % of control | [4] 98 % of control | endpoint: mean survival time, dose: 200.0 mg/kg/injection, schedule: Q01DX009 (ip), vehicle: saline with Tween-80 98 % of control | [5] 102 % of control | endpoint: mean survival time, dose: 400.0 mg/kg/injection, schedule: Q01DX009 (ip), vehicle: saline with Tween-80 95 % of control | [6] 101 % of control

C=CCOc1cccc(OCC=C)c1C
inactive: [7] 102 % of control | [8] 100 % of control | endpoint: mean survival time, dose: 400.0 mg/kg/injection, schedule: Q01DX009 (ip), vehicle: saline 100 % of control

O=C(O)Cc1cccc2c(=O)cc(-c3ccccc3)oc12
active: endpoint: median survival time, dose: 175.0 mg/kg/injection, schedule: Q01DX009 (ip), vehicle: sodium bicarbonate 156 % of control
inactive: endpoint: median survival time, dose: 12.5 mg/kg/injection, schedule: Q01DX009 (ip), vehicle: suspension in saline 113 % of control and 109 % of control | endpoint: median survival time, dose: 25.0 mg/kg/injection, schedule: Q01DX009 (ip), vehicle: suspension in saline 113 % of control and 105 % of control | endpoint: median survival time, dose: 30.0 mg/kg/injection, schedule: Q01DX009 (ip), vehicle: saline with Tween-80 112 % of control | endpoint: median survival time, dose: 30.0 mg/kg/injection, schedule: Q01DX009 (ip), vehicle: sodium bicarbonate 100 % of control | endpoint: median survival time, dose: 44.0 mg/kg/injection, schedule: Q01DX009 (ip), vehicle: saline with Tween-80 123 % of control | endpoint: median survival time, dose: 44.0 mg/kg/injection, schedule: Q01DX009 (ip), vehicle: sodium bicarbonate 113 % of control | endpoint: median survival time, dose: 45.0 mg/kg/injection, schedule: Q01DX009 (ip), vehicle: sodium bicarbonate 107 % of control | endpoint: median survival time, dose: 50.0 mg/kg/injection, schedule: Q01DX009 (ip), vehicle: suspension in saline 116 % of control | endpoint: median survival time, dose: 67.0 mg/kg/injection, schedule: Q01DX001 (ip), vehicle: sodium bicarbonate 101 % of control | endpoint: median survival time, dose: 67.0 mg/kg/injection, schedule: Q01DX009 (ip), vehicle: sodium bicarbonate 113 % of control and 112 % of control | endpoint: median survival time, dose: 100.0 mg/kg/injection, schedule: Q01DX001 (ip), vehicle: sodium bicarbonate 108 % of control | endpoint: median survival time, dose: 100.0 mg/kg/injection, schedule: Q01DX009 (ip), vehicle: saline with Tween-80 124 % of control | endpoint: median survival time, dose: 100.0 mg/kg/injection, schedule: Q01DX009 (ip), vehicle: sodium bicarbonate 119 % of control and 124 % of control | endpoint: median survival time, dose: 100.0 mg/kg/injection, schedule: Q01DX009 (ip), vehicle: suspension in saline 113 % of control | endpoint: median survival time, dose: 150.0 mg/kg/injection, schedule: Q01DX001 (ip), vehicle: sodium bicarbonate 112 % of control | endpoint: median survival time, dose: 150.0 mg/kg/injection, schedule: Q01DX009 (ip), vehicle: saline with Tween-80 108 % of control | endpoint: median survival time, dose: 200.0 mg/kg/injection, schedule: Q01DX009 (ip), vehicle: suspension in saline 103 % of control | endpoint: median survival time, dose: 223.0 mg/kg/injection, schedule: Q01DX001 (ip), vehicle: sodium bicarbonate 108 % of control | endpoint: median survival time, dose: 333.0 mg/kg/injection, schedule: Q01DX001 (ip), vehicle: sodium bicarbonate 121 % of control
